Drawing on patent US10683290B2, “Tricyclic compounds as anticancer agents” (BRISTOL-MYERS SQUIBB COMPANY, priority 2015, dated 2020), this text covers IC50 for 13 compounds.

This test deals with BRD4 (Homo sapiens, UniProt O60885). As to the kind of experiment: biochemical. It is filed as binding. The settings on record: one of the FRET assays described; read-out: FRET BRD4 IC50.
The IC50 is the concentration needed to halve the response being measured. For `[2H]C([2H])([2H])c1nnn(C)c1-c1cc2c(cc1F)c1ncc(C(C)(C)O)cc1n2C(c1cc(OC)ccn1)C1CCOCC1` (single isomer, unassigned) [Example 51, 2-{8-fluoro-5-[(4-methoxypyridin-2-yl)(oxan-4-yl)methyl]-7-[4-(^2H3)methyl-1-methyl-1H-1,2,3-triazol-5-yl]-5H-pyrido[3,2-b]indol-3-yl}propan-2-ol], the IC50 is under 1500 nM.

Regarding `[2H]C([2H])([2H])c1nnn(C)c1-c1cc2c(cc1F)c1ncc(C(C)(C)O)cc1n2C(c1ccccc1)C1COC1` (single isomer, unassigned) [Example 68, 2-{8-fluoro-7-[4-(^2H3)methyl-1-methyl-1H-1,2,3-triazol-5-yl]-5-[oxetan-3-yl(phenyl)methyl]-5H-pyrido[3,2-b]indol-3-yl}propan-2-ol], the IC50 is under 1500 nM. With `[2H]C([2H])([2H])c1nnn(C)c1-c1cc2c(cc1F)c1ncc(C(C)(C)O)cc1n2C(c1ccccc1)C1(C)COC1` (single isomer, unassigned) [Example 64, 2-{8-fluoro-7-[4-(^2H3)methyl-1-methyl-1H-1,2,3-triazol-5-yl]-5-[(3-methyloxetan-3-yl)(phenyl)methyl]-5H-pyrido[3,2-b]indol-3-yl}propan-2-ol], the IC50 is under 5 nM. In the case of `[2H]C([2H])([2H])c1nnn(C)c1-c1cc2c(cc1Cl)c1ncc(C(C)(C)O)cc1n2C(c1ncccc1F)C1CCOCC1` (single isomer, unassigned) [Example 76, 2-{8-Chloro-5-[(3-fluoropyridin-2-yl)(oxan-4-yl)methyl]-7-[4-(^2H3)methyl-1-methyl-1H-1,2,3-triazol-5-yl]-5H-pyrido[3,2-b]indol-3-yl}propan-2-ol], the IC50 was under 1500 nM. Take `[2H]C([2H])([2H])c1nnn(C)c1-c1cc2c(cc1F)c1ncc(C(C)(C)O)cc1n2C(CCC)c1ccc(F)cn1` (single isomer, unassigned) [Example 59, 2-{8-fluoro-5-[1-(5-fluoropyridin-2-yl)butyl]-7-[4-(^2H3)methyl-1-methyl-1H-1,2,3-triazol-5-yl]-5H-pyrido[3,2-b]indol-3-yl}propan-2-ol]: the IC50 is under 5 nM. As for `[2H]C([2H])([2H])c1nnn(C)c1-c1ccc2c3ncc(C(C)(C)O)cc3n(C(c3cc(C)on3)C3CCOCC3)c2c1` (single isomer, unassigned) [Example 73, 2-{5-[(5-methyl-1,2-oxazol-3-yl)(oxan-4-yl)methyl]-7-[4-(^2H3)methyl-1-methyl-1H-1,2,3-triazol-5-yl]-5H-pyrido[3,2-b]indol-3-yl}propan-2-ol], the IC50 was under 5 nM.

As for `Cc1nnn(C)c1-c1cc2c(cc1F)c1ncc(C(C)(C)O)cc1n2C(c1ncccn1)C1CCOCC1` (single isomer, unassigned) [Example 54], the IC50 was under 5 nM. With `[2H]C([2H])([2H])c1nnn(C)c1-c1cc2c(cc1F)c1ncc(C(C)(C)O)cc1n2C(c1ccc(F)cn1)C1CCOCC1` (single isomer, unassigned) [Example 44, 2-{8-fluoro-5-[(5-fluoropyridin-2-yl)(oxan-4-yl)methyl}-7-[4-(^2H3)methyl-1-methyl-1H-1,2,3-triazol-5-yl]-5H-pyrido[3,2-b]indol-3-yl]propan-2-ol], the half-maximal inhibitory concentration (IC50) was under 1500 nM. As for `[2H]C([2H])([2H])c1nnn(C)c1-c1cc2c(cc1Cl)c1ncc(C(C)(C)O)cc1n2C(c1ccccn1)C1CCOCC1` (single isomer, unassigned) [Example 80, 2-{8-chloro-7-[4-(^2H3)methyl-1-methyl-1H-1,2,3-triazol-5-yl]-5-[oxan-4-yl(pyridin-2-yl)methyl]-5H-pyrido[3,2-b]indol-3-yl}propan-2-ol], the half-maximal inhibitory concentration (IC50) is under 1500 nM. Turning to `[2H]C([2H])([2H])c1nnn(C)c1-c1cc2c(cc1F)c1ncc(C(C)(C)O)cc1n2C(c1ncccc1F)C1CCOCC1` (stereo not shown) [Example 31, 2-{8-Fluoro-5-[(3-fluoropyridin-2-yl)(oxan-4-yl)methyl]-7-[4-(^2H3)methyl-1-methyl-1H-1,2,3-triazol-5-yl]-5H-pyrido[3,2-b]indol-3-yl}propan-2-ol], the half-inhibitory concentration (IC50) was under 5 nM. With `[2H]C([2H])([2H])c1nnn(C)c1-c1cc2c(cc1F)c1ncc(C(C)(C)O)cc1n2C(c1cc(OC)ccn1)C1CCOCC1` (single isomer, unassigned) [Example 50, 2-{8-fluoro-5-[(4-methoxypyridin-2-yl)(oxan-4-yl)methyl]-7-[4-(^2H3)methyl-1-methyl-1H-1,2,3-triazol-5-yl]-5H-pyrido[3,2-b]indol-3-yl}propan-2-ol], the IC50 is under 5 nM. Consider `Cc1noc(C)c1-c1ccc2c3ncc(C(C)(C)O)cc3n([C@H](c3ccccc3)C3CCOCC3)c2c1` [Example 14, 2-[7-(Dimethyl-1,2-oxazol-4-yl)-5-[(S)-oxan-4-yl(phenyl)methyl]-5H-pyrido[3,2-b]indol-3-yl]propan-2-ol], for which the IC50 was under 5 nM. In the case of `[2H]C([2H])([2H])c1nnn(C)c1-c1cc2c(cc1F)c1ncc(C(C)(C)O)cc1n2C(C1=CCCOC1)c1ccccc1` (racemic) [Example 61, 2-{5-[5,6-dihydro-2H-pyran-3-yl(phenyl)methyl]-8-fluoro-7-[4-(^2H3)methyl-1-methyl-1H-1,2,3-triazol-5-yl]-5H-pyrido[3,2-b]indol-3-yl}propan-2-ol], the IC50 is under 5 nM.
